ChEMBL document CHEMBL1201862, “PubChem BioAssay data set” (2004)
Activity calls are given as the source filed them.

Assays:
[1] = target: Melanin-concentrating hormone receptor 1 (Homo sapiens, UniProt Q99705); assay: Late-stage fluorescence-based counterscreen for antagonists of the G-protein coupled receptor 7 (GPR7): cell-based dose response assay to identify antagonists of the melanin-concentrating hormone receptor 1 (MCHR1). [Related pubchem assays (depositor defined):AID1861, AID1880, AID1952, AID2148, AID2251, AID2257, AID485339]; format: functional;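 note: stimulated with 30 nM MCH peptide agonist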
[2] = target: G-protein coupled receptor 35 (Homo sapiens, UniProt Q9HC97); assay: GPR35 antagonists blocking zaprinast-driven arrestin recruitment, primary screen, imaging, U2OS, beta-arrestin-GFP, zaprinast agonist (AID 2058); format: functional;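 note: antagonist potency meaning inhibition of agonist-induced arrestin redistribution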
[3] = target: T1, Microphthalmia-associated transcription factor (Homo sapiens, UniProt O75030); assay: TRPM1 promoter luciferase signal decrease, dose response, MITF inhibitor project, cell-based, SK-MEL-5, cherry-picked, set 3 (AID 493073); format: functional
T1 sequence (O75030 whole entry): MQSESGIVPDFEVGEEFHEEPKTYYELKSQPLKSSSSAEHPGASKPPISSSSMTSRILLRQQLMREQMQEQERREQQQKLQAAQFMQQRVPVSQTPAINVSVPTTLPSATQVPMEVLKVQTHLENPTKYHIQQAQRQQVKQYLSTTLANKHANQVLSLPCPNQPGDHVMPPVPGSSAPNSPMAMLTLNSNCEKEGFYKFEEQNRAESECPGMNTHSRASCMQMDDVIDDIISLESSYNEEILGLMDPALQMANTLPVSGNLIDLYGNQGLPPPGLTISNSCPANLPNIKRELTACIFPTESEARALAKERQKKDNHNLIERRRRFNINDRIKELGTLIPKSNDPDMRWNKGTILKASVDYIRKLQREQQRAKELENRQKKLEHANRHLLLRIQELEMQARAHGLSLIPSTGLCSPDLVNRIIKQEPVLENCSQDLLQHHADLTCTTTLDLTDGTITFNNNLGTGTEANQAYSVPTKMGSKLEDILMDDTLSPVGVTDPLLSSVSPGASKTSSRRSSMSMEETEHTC

[4] = target: T2, DNA repair protein RAD52 homolog (Homo sapiens, UniProt P43351); format: functional, biochemical
T2 sequence (P43351 whole entry): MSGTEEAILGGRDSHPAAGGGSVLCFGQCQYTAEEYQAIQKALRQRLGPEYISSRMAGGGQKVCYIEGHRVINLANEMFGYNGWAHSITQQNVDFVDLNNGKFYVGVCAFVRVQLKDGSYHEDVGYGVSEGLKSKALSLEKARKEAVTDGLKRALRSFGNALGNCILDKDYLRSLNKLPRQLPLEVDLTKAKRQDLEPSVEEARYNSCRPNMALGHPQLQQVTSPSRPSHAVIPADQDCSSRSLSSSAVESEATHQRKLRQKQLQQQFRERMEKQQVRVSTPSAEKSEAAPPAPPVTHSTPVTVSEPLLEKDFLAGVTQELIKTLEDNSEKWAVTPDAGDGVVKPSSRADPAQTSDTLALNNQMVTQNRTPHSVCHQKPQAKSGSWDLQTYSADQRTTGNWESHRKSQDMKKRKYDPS

[5] = target: Acyl-homoserine lactone acylase PvdQ (Pseudomonas aeruginosa (strain LESB58), UniProt Q9I194); assay: P. aeruginosa PvdQ acylase inhibitors, dose response, biochemical, fluorescence, plate reader and imaging, cherry-picks (AID 493231)
[6] = Luminescence Cell Based Dose Confirmation HTS to Identify Activators of 5'UTR Stem-Loop Driven Alpha-Synuclein mRNA Translation in H4 Neuroglioblastoma Cells. [Related pubchem assays (depositor defined):AID1813, AID1829]; format: functional; details: Homo sapiens
[7] = target: T3, Small ubiquitin-related modifier 1 (Homo sapiens, UniProt P63165); assay: inhibitors of SUMO1 peptide binding, dose response, biochemical, fluorescence polarization, uHTS hits (AID 624382); format: functional; details: read-out: IC50_Mean
[8] = target: T3, Small ubiquitin-related modifier 1; assay: inhibitors of SUMO1 partner interactions, dose response, biochemical, FRET (AID 624383); format: functional; details: read-out: IC50_Mean
[9] = target: Voltage-gated N-type calcium channel alpha-1B subunit/Amyloid beta A4 precursor protein-binding family A member 1 (Homo sapiens, UniProt Q00975+Q02410); assay: disruptors of Mint-PDZ/N-type channel peptide interaction – biochemical, HTRF, set 2, SAR follow-up (AID 434980); format: functional
[10] = target: T4, Delta-type opioid receptor (Homo sapiens, UniProt P41143); assay: HTS Image-Based Screen for Antagonists of the DOR Receptor. [Related pubchem assays (depositor defined):AID1777, AID1785, AID1786, AID2133]; format: functional
[11] = target: Mu-type opioid receptor (Homo sapiens, UniProt P35372); assay: HTS Image-Based Screen for Agonists of the MOR Receptor. [Related pubchem assays (depositor defined):AID1777, AID1785, AID1786, AID2133]; format: functional;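 note: imaging of beta-arrestin GFP recruitment into spots after receptor activation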
[12] = target: T4, Delta-type opioid receptor; assay: HTS Image-Based Screen for Agonists of the DOR Receptor. [Related pubchem assays (depositor defined):AID1777, AID1786, AID2133]; format: functional
[13] = target: T5, Kappa-type opioid receptor (Homo sapiens, UniProt P41145); format: functional
[14] = target: T5, Kappa-type opioid receptor; format: functional; remark: listed apart in the source
[15] = target: Eukaryotic translation initiation factor 4E (Mus musculus, UniProt P63073); assay: eIF4E–eIF4G protein interaction inhibitors, dose response, biochemical, TR-FRET (AID 855); format: functional;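 note: potency for disrupting eIF4E binding to eIF4GI seen as loss of FRET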
[16] = tested on: HEK293; assay: Fluorescence-based counterscreen for potentiators or agonists of NPY-Y2: cell-based high-throughput dose response assay to identify inhibitors of cyclic nucleotide gated ion channel (CNGC) activity. In this assay, the parental HEK293 cell line transfected with a cyclic-nucleotide gated ion channel (CNGC)-based cAMP sensor is used to measure inhibition of isoproterenol-induced CNGC activity by test compound.; format: functional; details: Homo sapiens;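 note: stimulus is 1 µM isoproterenol at EC100 plus PDE inhibitor Ro 20-1724 at 25 µM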
[17] = target: T6, Neuropeptide Y receptor type 2 (Homo sapiens, UniProt P49146); assay: Fluorescence-based cell-based high-throughput dose response assay for agonists of NPY-Y2. [Related pubchem assays: 1703 (Screening assay (CNGC inhibitors).), 1359 (Screening assay (NPY-Y2 potentiators or agonists).), 1304 (Screening assay (NPY-Y1 potentiators or agonists).), 1710 (Screening assay (NPY-Y2 agonists).), 1791 (Summary AID.)]; format: functional
T6 sequence (P49146 whole entry): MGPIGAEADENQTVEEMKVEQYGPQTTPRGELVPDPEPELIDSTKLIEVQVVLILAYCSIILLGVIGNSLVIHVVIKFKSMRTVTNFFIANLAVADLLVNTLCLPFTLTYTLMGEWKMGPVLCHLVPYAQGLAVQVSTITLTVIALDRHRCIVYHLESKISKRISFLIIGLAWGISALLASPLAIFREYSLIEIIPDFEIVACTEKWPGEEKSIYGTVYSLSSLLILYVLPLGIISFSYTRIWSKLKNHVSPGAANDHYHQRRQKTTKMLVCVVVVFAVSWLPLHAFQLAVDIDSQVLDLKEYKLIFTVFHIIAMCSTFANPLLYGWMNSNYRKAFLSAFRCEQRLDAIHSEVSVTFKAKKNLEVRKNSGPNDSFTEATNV

[18] = target: T7, Neuropeptide Y receptor type 1 (Homo sapiens, UniProt P25929); assay: Fluorescence-based counterscreen for agonists of NPY-Y2: cell-based high-throughput dose response assay for agonists of NPY-Y1.; format: functional
T7 sequence (P25929 whole entry): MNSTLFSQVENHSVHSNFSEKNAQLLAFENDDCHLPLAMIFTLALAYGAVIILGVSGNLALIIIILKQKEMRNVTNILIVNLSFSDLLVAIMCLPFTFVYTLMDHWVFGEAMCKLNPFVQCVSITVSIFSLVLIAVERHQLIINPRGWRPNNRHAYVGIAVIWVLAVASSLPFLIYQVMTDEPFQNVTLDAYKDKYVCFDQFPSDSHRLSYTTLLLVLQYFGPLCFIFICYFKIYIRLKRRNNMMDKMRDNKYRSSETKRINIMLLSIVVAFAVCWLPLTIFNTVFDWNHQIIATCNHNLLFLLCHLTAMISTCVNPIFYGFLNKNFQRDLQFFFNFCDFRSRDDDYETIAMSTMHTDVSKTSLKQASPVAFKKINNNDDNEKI

[19] = target: Cyclin-dependent kinase 5/CDK5 activator 1 (Homo sapiens, UniProt Q00535); assay: CDK5/p35 kinase inhibitors, dose response, biochemical, cherry-picked samples, set 2 (AID 504545)
[20] = target: T8, Galanin receptor type 3 (Homo sapiens, UniProt O60755); assay: Fluorescence-based cell-based primary high throughput dose response assay to identify antagonists of the Galanin Receptor 3 (GalR3).; format: functional
T8 sequence (O60755 whole entry): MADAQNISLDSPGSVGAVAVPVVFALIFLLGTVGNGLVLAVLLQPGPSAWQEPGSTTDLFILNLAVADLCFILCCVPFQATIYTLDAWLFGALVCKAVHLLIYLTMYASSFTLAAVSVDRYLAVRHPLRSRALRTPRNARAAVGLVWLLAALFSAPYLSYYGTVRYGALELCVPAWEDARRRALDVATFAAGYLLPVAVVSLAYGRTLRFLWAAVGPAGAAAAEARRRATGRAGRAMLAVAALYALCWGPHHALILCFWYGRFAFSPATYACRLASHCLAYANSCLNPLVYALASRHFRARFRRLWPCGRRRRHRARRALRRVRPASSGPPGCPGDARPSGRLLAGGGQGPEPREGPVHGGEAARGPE

[21] = cells; format: functional, cell-based; details: HEK-CNG
[22] = target: Chaperone protein dnaK (Escherichia coli, UniProt C3TRK2); assay: DnaK beta-domain binding affinity, SAR follow-up, orthogonal assay for DnaK modulator project, biophysical, isothermal titration calorimetry, full-length DnaK (AID 1495)
[23] = target: Envelope glycoprotein gp160 (Human immunodeficiency virus 1, UniProt Q6QLK5); assay: inhibitors of HIV fusion peptide binding, primary screen, biochemical, uHTS, fluorescence dequenching (AID 1986)
[24] = target: Induced myeloid leukemia cell differentiation protein Mcl-1 (Homo sapiens, UniProt Q07820); format: functional
[25] = THP-1 cell cytotoxicity, dose response, cytotoxicity control for Vif-APOBEC3G degradation inhibitor project, THP-1 cells (AID 1117359); format: functional; details: Human immunodeficiency virus 1, THP-1
[26] = nmpC-GFP reporter inhibition in S. Typhimurium, dose response, counter-screen for PhoP regulon inhibitor project, purified and synthesized compounds, set 2 (AID 2834); format: functional
[27] = Shn3 3'UTR reporter inhibitors, dose response, cell-based, Clone20 osteoblasts, firefly luciferase, cherry-picked (AID 624132); format: functional;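 note: firefly luciferase luminescence from reporter carrying the Shn3 3'UTR in osteoblasts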
[28] = HepG2 cell cytotoxicity, dose response, cytotoxicity control for Shn3 inhibitor project, CellTiter-Glo, cherry-picked (AID 624134); format: functional, cell-based
[29] = control 3'UTR Renilla luciferase suppression, dose response, counter-screen for Shn3 inhibitor project, cell-based, Clone20-Shn3RL, cherry-picked (AID 624133); format: functional
[30] = target: Disintegrin and metalloproteinase domain-containing protein 17 (Homo sapiens, UniProt P78536); assay: exosite inhibitors of ADAM17, dose response, biochemical (AID 743260)
[31] = ADAM10 protease inhibitors, dose response, selectivity assay for ADAM17 exosite inhibitor project, biochemical, FRET peptide substrate, recombinant human ADAM10 (AID 743259);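 note: ADAM10 enzyme cleaving a FRET peptide substrate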

T5 sequence (P41145 whole entry): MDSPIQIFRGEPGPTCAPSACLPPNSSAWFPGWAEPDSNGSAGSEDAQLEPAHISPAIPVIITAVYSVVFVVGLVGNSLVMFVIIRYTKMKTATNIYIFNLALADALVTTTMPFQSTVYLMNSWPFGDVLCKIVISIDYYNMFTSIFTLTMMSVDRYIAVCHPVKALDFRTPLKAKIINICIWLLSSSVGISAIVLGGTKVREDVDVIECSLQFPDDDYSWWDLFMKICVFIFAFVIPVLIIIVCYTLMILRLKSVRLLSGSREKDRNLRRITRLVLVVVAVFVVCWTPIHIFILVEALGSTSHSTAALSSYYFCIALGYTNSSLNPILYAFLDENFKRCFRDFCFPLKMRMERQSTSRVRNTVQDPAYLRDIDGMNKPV
T3 sequence (P63165 whole entry): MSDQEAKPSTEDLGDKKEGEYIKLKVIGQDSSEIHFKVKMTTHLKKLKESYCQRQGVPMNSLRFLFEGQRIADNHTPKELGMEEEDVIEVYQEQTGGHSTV
T4 sequence (P41143 whole entry): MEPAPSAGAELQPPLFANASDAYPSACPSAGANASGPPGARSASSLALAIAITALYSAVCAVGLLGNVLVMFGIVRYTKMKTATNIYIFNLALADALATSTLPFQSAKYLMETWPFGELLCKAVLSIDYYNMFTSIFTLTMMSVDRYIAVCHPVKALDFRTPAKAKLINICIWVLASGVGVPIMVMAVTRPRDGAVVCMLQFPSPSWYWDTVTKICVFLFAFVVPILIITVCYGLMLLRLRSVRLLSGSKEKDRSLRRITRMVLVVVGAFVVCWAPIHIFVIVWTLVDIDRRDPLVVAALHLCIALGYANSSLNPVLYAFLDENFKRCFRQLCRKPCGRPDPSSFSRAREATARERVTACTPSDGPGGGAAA
Sequence of G-protein coupled receptor 35 (Q9HC97 whole entry): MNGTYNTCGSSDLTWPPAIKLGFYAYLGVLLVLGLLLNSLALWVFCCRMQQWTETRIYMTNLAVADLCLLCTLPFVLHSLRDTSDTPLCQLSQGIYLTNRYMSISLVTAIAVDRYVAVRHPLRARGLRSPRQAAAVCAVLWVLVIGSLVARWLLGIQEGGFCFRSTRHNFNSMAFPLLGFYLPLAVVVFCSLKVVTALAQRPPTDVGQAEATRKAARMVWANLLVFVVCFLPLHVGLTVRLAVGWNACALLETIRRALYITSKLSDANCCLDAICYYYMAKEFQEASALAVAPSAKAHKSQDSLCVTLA
Sequence of Voltage-gated N-type calcium channel alpha-1B subunit/Amyloid beta A4 precursor protein-binding family A member 1 (Q00975 whole entry): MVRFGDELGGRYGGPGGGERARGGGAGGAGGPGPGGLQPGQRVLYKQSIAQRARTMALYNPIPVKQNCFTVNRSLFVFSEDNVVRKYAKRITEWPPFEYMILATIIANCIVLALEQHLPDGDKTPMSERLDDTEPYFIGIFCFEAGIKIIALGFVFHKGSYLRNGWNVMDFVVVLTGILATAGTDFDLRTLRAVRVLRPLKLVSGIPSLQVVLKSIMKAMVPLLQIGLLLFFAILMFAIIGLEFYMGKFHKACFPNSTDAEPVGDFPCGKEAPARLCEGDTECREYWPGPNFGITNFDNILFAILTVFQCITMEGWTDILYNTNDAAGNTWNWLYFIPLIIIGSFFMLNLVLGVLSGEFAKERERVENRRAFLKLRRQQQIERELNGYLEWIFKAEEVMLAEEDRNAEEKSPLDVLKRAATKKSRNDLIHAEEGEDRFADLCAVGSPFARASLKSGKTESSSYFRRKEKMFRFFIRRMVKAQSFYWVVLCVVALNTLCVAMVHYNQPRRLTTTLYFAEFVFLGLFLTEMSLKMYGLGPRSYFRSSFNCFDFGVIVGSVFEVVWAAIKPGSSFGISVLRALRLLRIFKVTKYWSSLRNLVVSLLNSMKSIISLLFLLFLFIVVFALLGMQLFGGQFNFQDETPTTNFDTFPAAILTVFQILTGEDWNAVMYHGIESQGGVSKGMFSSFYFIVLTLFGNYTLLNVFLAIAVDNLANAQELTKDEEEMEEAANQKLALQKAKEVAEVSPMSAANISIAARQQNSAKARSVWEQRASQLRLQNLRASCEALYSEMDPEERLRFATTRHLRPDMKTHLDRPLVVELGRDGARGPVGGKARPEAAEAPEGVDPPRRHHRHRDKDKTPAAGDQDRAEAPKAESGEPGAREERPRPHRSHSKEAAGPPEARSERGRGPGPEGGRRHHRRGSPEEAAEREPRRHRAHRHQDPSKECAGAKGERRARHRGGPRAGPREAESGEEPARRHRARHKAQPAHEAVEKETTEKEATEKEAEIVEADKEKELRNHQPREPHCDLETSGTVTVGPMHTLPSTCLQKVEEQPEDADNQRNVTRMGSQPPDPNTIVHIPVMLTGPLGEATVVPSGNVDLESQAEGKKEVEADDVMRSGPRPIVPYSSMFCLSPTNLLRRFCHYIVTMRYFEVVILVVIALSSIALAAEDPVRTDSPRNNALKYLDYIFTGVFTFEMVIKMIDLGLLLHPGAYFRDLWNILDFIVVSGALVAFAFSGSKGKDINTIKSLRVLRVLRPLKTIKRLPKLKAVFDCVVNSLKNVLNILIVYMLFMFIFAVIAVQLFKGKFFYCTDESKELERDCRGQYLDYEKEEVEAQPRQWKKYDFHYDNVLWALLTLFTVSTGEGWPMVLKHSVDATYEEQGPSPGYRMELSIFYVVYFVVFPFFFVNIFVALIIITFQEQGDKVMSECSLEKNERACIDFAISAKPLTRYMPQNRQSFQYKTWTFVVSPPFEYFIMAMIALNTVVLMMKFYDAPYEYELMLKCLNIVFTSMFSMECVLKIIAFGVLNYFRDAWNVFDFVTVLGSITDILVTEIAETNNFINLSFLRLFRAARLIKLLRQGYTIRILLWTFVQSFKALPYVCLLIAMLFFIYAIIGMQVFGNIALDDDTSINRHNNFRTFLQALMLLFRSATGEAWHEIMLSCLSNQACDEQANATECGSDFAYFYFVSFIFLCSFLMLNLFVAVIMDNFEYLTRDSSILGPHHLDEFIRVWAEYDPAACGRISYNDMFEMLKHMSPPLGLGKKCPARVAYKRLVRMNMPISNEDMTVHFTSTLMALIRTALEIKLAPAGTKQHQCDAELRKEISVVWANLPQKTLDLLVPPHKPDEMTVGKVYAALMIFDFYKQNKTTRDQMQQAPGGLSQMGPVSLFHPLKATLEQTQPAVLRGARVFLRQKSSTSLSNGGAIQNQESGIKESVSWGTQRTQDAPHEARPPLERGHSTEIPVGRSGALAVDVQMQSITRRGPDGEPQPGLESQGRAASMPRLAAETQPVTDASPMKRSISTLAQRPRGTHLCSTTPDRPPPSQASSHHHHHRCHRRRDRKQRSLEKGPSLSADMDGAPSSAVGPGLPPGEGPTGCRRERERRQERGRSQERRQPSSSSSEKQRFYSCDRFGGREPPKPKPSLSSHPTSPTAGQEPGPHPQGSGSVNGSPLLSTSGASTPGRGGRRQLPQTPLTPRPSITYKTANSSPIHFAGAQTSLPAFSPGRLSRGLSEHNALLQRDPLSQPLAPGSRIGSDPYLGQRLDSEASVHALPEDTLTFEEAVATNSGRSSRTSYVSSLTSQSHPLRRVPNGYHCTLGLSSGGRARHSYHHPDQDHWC
Sequence of Voltage-gated N-type calcium channel alpha-1B subunit/Amyloid beta A4 precursor protein-binding family A member 1 (Q02410 whole entry): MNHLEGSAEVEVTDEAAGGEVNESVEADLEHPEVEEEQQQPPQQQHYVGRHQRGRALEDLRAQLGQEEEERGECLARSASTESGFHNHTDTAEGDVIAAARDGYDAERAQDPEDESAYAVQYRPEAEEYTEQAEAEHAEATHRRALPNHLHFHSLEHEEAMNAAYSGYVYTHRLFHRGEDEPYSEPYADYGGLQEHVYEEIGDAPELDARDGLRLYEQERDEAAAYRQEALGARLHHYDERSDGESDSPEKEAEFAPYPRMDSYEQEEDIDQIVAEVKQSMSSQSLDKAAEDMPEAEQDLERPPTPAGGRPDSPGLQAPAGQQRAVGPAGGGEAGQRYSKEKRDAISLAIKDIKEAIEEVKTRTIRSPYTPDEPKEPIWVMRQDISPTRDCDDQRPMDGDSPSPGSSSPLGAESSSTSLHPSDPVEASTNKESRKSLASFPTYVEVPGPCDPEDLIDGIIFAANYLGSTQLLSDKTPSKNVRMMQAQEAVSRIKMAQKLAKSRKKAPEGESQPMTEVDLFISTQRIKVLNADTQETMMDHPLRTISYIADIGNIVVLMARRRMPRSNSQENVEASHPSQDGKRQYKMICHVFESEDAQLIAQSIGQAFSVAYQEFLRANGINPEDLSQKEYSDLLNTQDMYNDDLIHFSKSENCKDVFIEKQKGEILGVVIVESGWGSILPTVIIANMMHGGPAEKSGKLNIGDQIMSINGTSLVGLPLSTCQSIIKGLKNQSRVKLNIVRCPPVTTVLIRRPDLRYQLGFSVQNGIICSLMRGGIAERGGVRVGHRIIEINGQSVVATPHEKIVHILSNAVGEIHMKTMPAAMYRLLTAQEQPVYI
Sequence of Cyclin-dependent kinase 5/CDK5 activator 1 (Q00535 whole entry): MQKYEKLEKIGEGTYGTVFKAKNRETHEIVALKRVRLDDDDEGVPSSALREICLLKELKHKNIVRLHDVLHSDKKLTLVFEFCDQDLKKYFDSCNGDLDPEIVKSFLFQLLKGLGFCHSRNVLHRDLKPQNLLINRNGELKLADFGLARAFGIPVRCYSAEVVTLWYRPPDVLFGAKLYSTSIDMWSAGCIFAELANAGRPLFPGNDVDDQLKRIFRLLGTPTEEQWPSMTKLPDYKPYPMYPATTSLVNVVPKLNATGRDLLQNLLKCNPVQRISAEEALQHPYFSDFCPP
Sequence of Cyclin-dependent kinase 5/CDK5 activator 1 (Q15078 whole entry, further chain): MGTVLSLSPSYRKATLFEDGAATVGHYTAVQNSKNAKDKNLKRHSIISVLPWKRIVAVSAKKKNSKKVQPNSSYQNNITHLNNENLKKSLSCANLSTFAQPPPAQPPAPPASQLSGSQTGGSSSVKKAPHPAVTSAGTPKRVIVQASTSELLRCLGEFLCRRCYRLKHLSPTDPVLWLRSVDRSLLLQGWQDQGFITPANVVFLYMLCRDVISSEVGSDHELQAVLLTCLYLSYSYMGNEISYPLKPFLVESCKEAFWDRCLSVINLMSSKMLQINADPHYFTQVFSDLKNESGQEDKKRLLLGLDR

COc1ccc(Oc2c(Br)cnn(-c3ccc(C(C)C)cc3)c2=O)cc1
IC50 [1]: 0.72 µM (active)

CN(C)CCCNC(=O)/C(=C\c1ccc(-c2ccc(Br)cc2)o1)NC(=O)c1ccccc1
IC50 [2]: > 32 µM (inactive)
AC50 [3]: 7.51 µM (active)
AC50 [4]: 15.6 µM (active)

CC1SCC(NC(=O)c2cccc(Cl)c2)CS1 (stereo unspecified)
AC50 [5]: > 100 µM (inactive)

COc1ccc(Cl)cc1Nc1nnc(-c2ccncc2)s1
EC50 [6]: 73.5 µM (active)
IC50 [7]: > 66.6 µM (inactive)
IC50 [8]: 4.83 µM (active)

O=C(Nc1ncc(-c2ccccc2)o1)c1cc(-c2ccco2)nc2ccccc12
IC50 [9]: > 56.8 µM (inactive)

Cc1ccc(C)c(N2CCN(C(=O)C(Cc3ccccc3)n3cccc3)CC2)c1 (stereo unspecified)
IC50 [10]: > 32 µM (inactive)
EC50 [11]: > 32 µM (inactive)
EC50 [12]: > 32 µM (inactive)
EC50 [13]: 4.27 µM
EC50 [14]: 10.5 µM
IC50 [15]: > 64 µM (inactive)

CCCc1cc(-c2[nH]ncc2-c2ccc(C(=O)OCC)o2)c(O)cc1O
EC50 [16]: > 35.4 µM (not active)
EC50 [17]: > 35.4 µM (not active)
EC50 [18]: 18.5 µM (not active)
AC50 [19]: 10 µM (active)
IC50 [20]: 12.8 µM (inactive)
EC50 [21]: > 29.9 µM (inactive)

O=C(Nc1ccc2[nH]ccc2c1)c1cccs1
Kd [22]: 12.7 µM (active)

O=C(O)C[C@@H]1C(=O)O[C@@H]2C(COC(=O)c3cc(O)c(O)c(O)c3)O[C@@H](OC(=O)c3cc(O)c(O)c(O)c3)[C@@H](OC(=O)c3cc(O)c(O)c4c3[C@H]1[C@H](O)C(=O)O4)[C@H]2OC(=O)c1cc(O)c(O)c(O)c1 (stereo partly specified)
IC50 [23]: 11.2 µM (active)
IC50 [24]: 1.52 µM (active)
CC50 [25]: > 40 µM (active)

S=C(NCc1ccc(Cl)cc1)Nc1ccncc1
IC50 [26]: > 125 µM (active)
AC50 [27]: 1.5 µM (active)
AC50 [28]: 22.1 µM (active)
AC50 [29]: > 70 µM (inactive)
IC50 [30]: > 69.6 µM (inactive)
IC50 [31]: > 69.6 µM (inactive)
